pIC50: −log10 of the molar value.

The test system of assay [1] is Rattus norvegicus. Nature of the assay: Potentiation of head twitching induced by 5-HTP in pargyline-pretreated rats following i.p. administration. The format is functional. As to conditions: ip.
The subject of assay [2] is Mus musculus. Nature of the assay: Antidepressant activity by tetrabenazine ptosis prevention in mice after intraperitoneal administration. As to conditions: ip.
For assay [3], the system named is Mus musculus. Nature of the assay: Inhibition of tetrabenazine ptosis in mice following i.p. administration. It counts as functional. As to conditions: ip.
In assay [4] the test system is Mus musculus. Nature of the assay: Antidepressant activity by tetrabenazine ptosis prevention in mice after oral administration.
Assay [5] concerns Mus musculus. Nature of the assay: Antidepressant activity by tetrabenazine ptosis prevention in mice after intraperitoneal administration; d = All animals died after tetrabenazine dosing. It counts as functional, organism-based.
For assay [6], the system named is Rattus norvegicus. Nature of the assay: Antidepressant activity measured by potentiation of head twitching induced by 5-HTP in pargyline-pretreated rats after intraperitoneal administered. As to conditions: ip. The format is functional.
Assay [7] has as its system Mus musculus. Nature of the assay: Antidepressant activity by tetrabenazine ptosis prevention in mice after peroral administration. The format is functional. As to conditions: po.
Assay [8] deals with Monoamine oxidase (Rattus norvegicus). Nature of the assay: In vitro inhibition of MAO against mitochondrial preparation in rat whole brain.
For assay [9], the species on record is Rattus norvegicus. Nature of the assay: In vitro inhibition of neuronal uptake against norepinephrine in rat whole brain. The format is functional.
The test system of assay [10] is Mus musculus. Nature of the assay: In vivo antidepressant activity measured by yohimbine toxicity potentiation in mouse after intraperitoneal administration. As to conditions: ip. The format is functional.
For assay [11], the species on record is Rattus norvegicus. Nature of the assay: In vitro inhibition of neuronal uptake against serotonin in rat whole brain. It counts as functional.
The species named for assay [12] is Rattus norvegicus. Nature of the assay: In vitro inhibition of neuronal uptake against dopamine in rat striatum. The format is functional.
Assay [13] relates to Rattus norvegicus. Nature of the assay: In vivo antidepressant activity measured by potentiation of head twitching induced by 5-HTP in pargyline-pretreated rats after intraperitoneal administration. The format is functional. As to conditions: ip.
Assay [14] concerns Mus musculus. Nature of the assay: In vivo antidepressant activity by tetrabenazine ptosis prevention in mouse after intraperitoneal administration. As to conditions: ip.
Assay [15] has as its system Rattus norvegicus. Nature of the assay: In vivo antidepressant activity against muricide in rat after intraperitoneal administration. It counts as functional. As to conditions: ip.
The subject of assay [16] is Mus musculus. Nature of the assay: Antidepressant activity by tetrabenazine ptosis prevention in mouse after oral administration. It counts as functional.
Assay [17] has as its system Mus musculus. Nature of the assay: Antidepressant activity by tetrabenazine ptosis prevention in mice after oral administration. It counts as functional.
Assay [18] relates to Mus musculus. Nature of the assay: In vivo antidepressant activity by tetrabenazine ptosis prevention in mice after oral administration. The format is functional.
Assay [19] relates to Mus musculus. Nature of the assay: In vivo antidepressant activity by tetrabenazine ptosis prevention in mice after intraperitoneal administration. The format is functional. As to conditions: ip.

On to `CN1CCC2(CC1)CN(c1ccc(C(F)(F)F)cc1)c1ccccc12`, for which the values for the 50% effective dose (ED50) in [1], in assay [2] and in [3] were 7.8 mg/kg, above 20 mg/kg and above 20 mg/kg, respectively.
Turning to `c1ccc(C2OC3(CCNCC3)c3ccccc32)cc1` (configuration not stated), the 50% effective dose (ED50) – broadly, the dose at which the effect has come halfway, by size or by number of responders – in assay [1] turned out to be 1.9 mg/kg; in [3] it was 0.5 mg/kg; in assay [4], 1 mg/kg.
With `CN1CCC2(CC1)CN(c1ccc(Cl)cc1)c1ccccc12`, the results for the ED50 in assay [1] and in [3] were above 10 mg/kg and above 20 mg/kg, respectively.
On the same counts, the results for `CN1CCC2(CC1)CN(c1ccccc1C(F)(F)F)c1cc(Cl)ccc12.O=C(O)/C=C\C(=O)O` are above 10 mg/kg and above 8 mg/kg.
On the same counts, the results for `CN1CCC2(CC1)CN(c1ccccc1N)c1ccccc12.Cl` are above 10 mg/kg and 4 mg/kg.
On the same counts, the results for `CN1CCC2(CC1)CN(c1ccccc1N)c1cc(Cl)ccc12.Cl.Cl` are above 10 mg/kg and above 20 mg/kg.
Turning to `Cl.O=[N+]([O-])c1ccccc1N1CC2(CCNCC2)c2ccccc21`, the ED50 in [1] was above 10 mg/kg; in [5], “All animals died”.
As to `Br.CN1CCC2(CC1)CN(c1ccc(F)cc1)c1ccccc12`, the ED50 in [2] was above 20 mg/kg; in assay [6] it was above 10 mg/kg; in [3], above 20 mg/kg.
As for `Fc1ccccc1N1CC2(CCNCC2)c2ccc(Cl)cc21.O=C(O)/C=C\C(=O)O`, the 50% effective dose (ED50) in assay [1] is above 10 mg/kg; in assay [3], above 8 mg/kg.
Taken in the same sequence, the figures for `CN1CCC2(CC1)CN(c1cccc(C(F)(F)F)c1)c1ccccc12` were above 10 mg/kg and above 20 mg/kg.
Consider `CN1CCC2(CC1)CN(c1ccccc1[N+](=O)[O-])c1ccccc12`, for which the ED50 is above 10 mg/kg in assay [1], 8.4 mg/kg in assay [7] and 4 mg/kg in assay [2].
For `CN1CCC2(CC1)CN(c1ccccc1)c1ccccc12`, the ED50 in assay [1] is above 10 mg/kg; in [3] it was above 20 mg/kg.
On the same counts, the results for `CN1CCC2(CC1)CN(c1ccccc1Cl)c1cc(Cl)ccc12.O=C(O)/C=C\C(=O)O` are above 10 mg/kg and 2.6 mg/kg.
Taken in the same sequence, the figures for `Cl.Nc1ccccc1N1CC2(CCNCC2)c2ccccc21` were above 10 mg/kg and above 20 mg/kg.
`Cl.Cl.Nc1ccccc1N1CC2(CCNCC2)c2ccc(Cl)cc21`: the ED50 in assay [1] was above 10 mg/kg; in assay [3] it was above 20 mg/kg.
Taken in the same sequence, the figures for `CN1CCC2(CC1)CN(c1ccccc1F)c1cc(Cl)ccc12.O=C(O)/C=C\C(=O)O` were above 10 mg/kg and 11 mg/kg.
Turning to `Clc1ccccc1N1CC2(CCNCC2)c2ccccc21.O=C(O)/C=C\C(=O)O`, the negative-log IC50 (pIC50) – broadly, the IC50 on a negative log10 scale, so that one unit is a factor of ten – in assay [8] is 3.80; in assay [9] it was 5.19; in assay [11] it was 5.77; in [12], 5.10. In addition, the ED50 was determined as 1.6 mg/kg in [10]; 4.7 mg/kg in [13]; 1.2 mg/kg in assay [14]; 4.9 mg/kg in [15]; 0.37 mg/kg in [16].
`CN1CCC2(CC1)CN(c1ccccc1F)c1ccccc12.O=C(O)/C=C\C(=O)O`: the ED50 was above 10 mg/kg in assay [1] and 15.2 mg/kg in assay [3].
Regarding `CNCCCN1c2ccccc2CCc2ccccc21` [DESIPRAMINE], the 50% effective dose (ED50) was above 10 mg/kg in [1], 0.8 mg/kg in assay [3] and 1.6 mg/kg in [4].
On to `CN1CCC2(CC1)CN(c1ccccc1Cl)c1ccccc12.O=C(O)/C=C\C(=O)O`, for which the median effective dose (ED50) in assay [1] is above 10 mg/kg; in assay [17], 3.2 mg/kg.
`Br.CN1CCC2(CC1)CN(c1ccccn1)c1ccccc12`: the 50% effective dose (ED50) in assay [1] is above 10 mg/kg; in [3], above 20 mg/kg.
Consider `Fc1ccc(N2CC3(CCNCC3)c3ccccc32)cc1.O=C(O)/C=C\C(=O)O`, for which the results for the ED50 in assay [1], in assay [2] and in assay [3] were above 10 mg/kg, above 20 mg/kg and above 20 mg/kg, respectively.
Take `CN(C)CCC=C1c2ccccc2CCc2ccccc21` [AMITRIPTYLINE]: the ED50 was 1.94 mg/kg in assay [18]; 8 mg/kg in assay [10]; 7.1 mg/kg in assay [13]; 1.5 mg/kg in assay [19]; 22.6 mg/kg in assay [15].

For the origin of these results see ChEMBL document CHEMBL1122256, “Novel tetracyclic spiropiperidines. 3. 1-arylspiro[indoline-3,4'-piperidine]s as potential antidepressants” (J Med Chem, 1983).
